Source: patent publication US20150374709A1, “TETRA-SUBSTITUTED NDGA DERIVATIVES VIA ETHER BONDS AND CARBAMATE BONDS AND THEIR SYNTHESIS AND PHARMACEUTICAL USE” (ERIMOS PHARMACEUTICALS LLC, priority 2006, published 2015)

Experiments:
Type in all cases: cell-based
Melanoma cell lines = assay: NCI DTP human tumor cell line screen, melanoma panel; conditions: Melanoma (8 cell lines)
Excerpt: (§1) The United States National Cancer Institute (NCI) provides a developmental therapeutics program (DTP) (http://dtp.nci.nih.gov/branches/btb/ivelsp.html) to screen submitted substances in support of cancer drug discovery. The In Vitro Cell Line Screening Project (IVCLSP) is a dedicated service providing direct support to the DTP anticancer drug discovery program and is designed to screen up to 3,000 compounds per year for potential anticancer activity. The operation of this screen utilizes 60 different human tumor cell lines, representing leukemia, melanoma and cancers of the lung, colon, brain, ovary, breast, prostate, and kidney. The aim is to prioritize for farther evaluation, synthetic compounds or natural product samples showing selective growth inhibition or cell killing of particular tumor cell lines. This screen is unique in that the complexity of a 60 cell line dose response produced by a given compound results in a biological response pattern which can be utilized in pattern recognition algorithms (COMPARE program. See: http://dtp.nci.nih.gov/docs/compare/compare.html). Using these algorithms, it is possible to assign a putative mechanism of action to a test compound, or to determine that the response pattern is unique and not similar to that of any of the standard prototype compounds included in the NCI database. […]

Prostate cell lines = assay: NCI DTP human tumor cell line screen, prostate panel; conditions: Prostate (2 cell lines)
Excerpt: as §1

Colon Cancer cell lines = assay: NCI DTP human tumor cell line screen, colon cancer panel; conditions: Colon Cancer (7 cell lines)
Excerpt: as §1

For C[C@H](Cc1ccc(OCCCN2CCCCC2)c(OCCCN2CCCCC2)c1)[C@@H](C)Cc1ccc(OCCCN2CCCCC2)c(OCCCN2CCCCC2)c1 [Compound A, 1,4-bis{3,4-bis[3-(piperidin-1-yl)propoxy]phenyl}-2,3-dimethyl-(2R,3S)-butane], the “Mean Growth Percent at 10 μM” value (Melanoma cell lines) was −92.38%, the “Mean Growth Percent at 10 μM” value (Prostate cell lines) was −95.47% and the “Mean Growth Percent at 10 μM” value (Colon Cancer cell lines) was −94.08%.
